Measurements reported in US5519024A, “Quinolonecarboxylic acid derivatives and their use” (Takeda Chemical Industries, Ltd., priority 1993, dated 1996).
Counter-ions that a name gives are not always drawn.

Target: T1, GPIIb/IIIa (Homo sapiens, UniProt P05106+P08514)
T1 construct: Purification of GPIIb/IIIa from HEL cells; endogenous in cells; host or cells: HEL cells (HEL 92.1.7, ATCC TIB180); endogenous complex solubilized with Triton X-100 and purified in house
Experiment: Inhibitory activity against binding of GPIIb/IIIa and fibrinogen
Details: Table 2, read-out: GPIIb/IIIa Fibrinogen Binding Inhibitory Activity; for inhibition at 10 µM: 10^-5 M; for inhibition at 1 µM: 10^-6 M
Procedure: Test Example 1: Inhibitory activity against binding of GPIIb/IIIa and fibrinogen
(1) Cultivation of human erythroleukemia-derived cell line (hereinafter referred to as HEL cells)
HEL cells (HEl92.1.7; ATCC No. TIB180) were purchased from ATCC (Rockville, Md., U.S.A.). The medium was RPMI medium (GIBCO Laboratories, Grand Island, N..Y, U.S.A.) containing 40 mM N-2-hydroxyethylpiperazine-N'-2-ethanesulfonic acid (hereinafter referred to as HEPES) (pH 7.0), 0.2% NaHCO3, 100 μg/ml kanamycin and 10% FCS. The cells were cultured in the presence of 5% CO2 at 37° C., with the medium replaced with a fresh medium to obtain a 4- to 5-fold dilution at intervals of 3 to 4 days.
(2) Purification of GPIIb/IIIa from HEL cells
GPIIb/IIIa was purified by a modification of the method of L. A. Fitzgerald et al. [J. Biol. Chem., 262, 3936 (1987)] as follows: All purification was conducted at room temperature, unless otherwise stated. At 7 days of cultivation, cells were collected from the HEL cell culture broth (cell suspension) by centrifugation (1,000 ×g, 10 minutes, 4° C.). After washing with 20 mM Tris-HCl (pH 7.5) containing 1 mM EDTA and 150 mM NaCl, the cells were suspended in a solubilizing buffer (20 mM Tris-HCl, 150 mM NaCl, 1% Triton X-100, 1 mM MgCl2, 1 mM CaCl2, 0.1 mM (p-amidinophenyl)methanesulfonyl fluoride (hereinafter referred to as APMSF), 10 nM leupeptin, 0.02% NaN3, pH 7.4), followed by gentle stirring at 4° C. for 30 minutes, to solubilize the GPIIb/IIIa. The suspension was centrifuged (100,000 ×g, 1 hour) at 4° C., and the cell debris removed, to yield a cell extract. The cell extract was passed through a Heparin-Sepharose CL-6B column (Pharmacia LKB) and a DEAE-Toyopearl 650M column (Tosoh), both previously equilibrated with a column buffer (20 mM Tris-HCl, 150 mM NaCl, 0.1% Triton X-100, 1 mM MgCl2, 1 mM CaCl2, 0.1 mM APMSF, 1 nM leupeptin, 0.05% NaN3, pH 7.4). The effluent was applied to a ConA-Sepharose column (Pharmacia LKB), previously equilibrated with the same column buffer as above, to adsorb the GPIIb/IIIa, followed by elution with the same column buffer but containing 0.5M methyl α-D-mannopyranoside. The eluted fraction was concentrated at 4° C. using an ultrafiltration apparatus (Amicon Corporation the fraction's molecular weight of 10,000), after which it was subjected to gel filtration through a Sephacryl S-300 column (Pharmacia LKB), previously equilibrated with the same column buffer, to yield a purified standard sample.
(3) Biotinization of human fibrinogen
Conducted by the method of I. F. Charo [I. F. Charo et al., J. Biol. Chem., 266, 1415 (1991)].
Human fibrinogen (Kabi Vitrum AB) was dissolved in PBS to 5 mg/ml and then dialyzed at 4° C. against 0.1M carbonate buffer (pH 8.2) containing 0.1M NaCl. After dialysis, insoluble substances were removed by centrifugation (100,000 ×g, 30 minutes), and the dialyzate was diluted to 1 mg/ml with the same buffer. To this dilution, sulfo-N-hydroxysuccinimidebiotin (Pierce Chemical Co.) was added to a final concentration of 0.2 mg/ml, followed by gentle mixing at room temperature for 30 minutes, to biotinize the fibrinogen. After completion of the reaction, the mixture was dialyzed against 0.05M Tris-HCl buffer (pH 7.4) containing 0.1M NaCl and 0.05% NaN3.
(4) Determination of inhibitory activity against fibrinogen binding
Conducted by a modification of the method of I. F. Charo [I. F. Charo et al., J. Biol. Chem., 266, 1415 (1991)] as follows: The purified GPIIb/IIIa was diluted to 1 μg/ml with buffer A (20 mM Tris-HCl, 150 mM NaCl, 1 mM CaCl2, 0.02% NaN3, pH 7.4). A 100 μl aliquot of this dilution was dispensed to a 96-well microplate (Maxisorp, produced by Nunc), and the plate kept standing at 4° C., to adsorb the GPIIb/IIIa to the microplate. Next, 150 μl of buffer B (35 mg/ml BSA, 50 mM Tris-HCl, 100 mM NaCl, 2 mM CaCl2, 0.02% NaN3, pH 7.4) was added, followed by 2 hours of blocking at 30° C. […]

T1 sequence (P08514 32-887 limits assumed): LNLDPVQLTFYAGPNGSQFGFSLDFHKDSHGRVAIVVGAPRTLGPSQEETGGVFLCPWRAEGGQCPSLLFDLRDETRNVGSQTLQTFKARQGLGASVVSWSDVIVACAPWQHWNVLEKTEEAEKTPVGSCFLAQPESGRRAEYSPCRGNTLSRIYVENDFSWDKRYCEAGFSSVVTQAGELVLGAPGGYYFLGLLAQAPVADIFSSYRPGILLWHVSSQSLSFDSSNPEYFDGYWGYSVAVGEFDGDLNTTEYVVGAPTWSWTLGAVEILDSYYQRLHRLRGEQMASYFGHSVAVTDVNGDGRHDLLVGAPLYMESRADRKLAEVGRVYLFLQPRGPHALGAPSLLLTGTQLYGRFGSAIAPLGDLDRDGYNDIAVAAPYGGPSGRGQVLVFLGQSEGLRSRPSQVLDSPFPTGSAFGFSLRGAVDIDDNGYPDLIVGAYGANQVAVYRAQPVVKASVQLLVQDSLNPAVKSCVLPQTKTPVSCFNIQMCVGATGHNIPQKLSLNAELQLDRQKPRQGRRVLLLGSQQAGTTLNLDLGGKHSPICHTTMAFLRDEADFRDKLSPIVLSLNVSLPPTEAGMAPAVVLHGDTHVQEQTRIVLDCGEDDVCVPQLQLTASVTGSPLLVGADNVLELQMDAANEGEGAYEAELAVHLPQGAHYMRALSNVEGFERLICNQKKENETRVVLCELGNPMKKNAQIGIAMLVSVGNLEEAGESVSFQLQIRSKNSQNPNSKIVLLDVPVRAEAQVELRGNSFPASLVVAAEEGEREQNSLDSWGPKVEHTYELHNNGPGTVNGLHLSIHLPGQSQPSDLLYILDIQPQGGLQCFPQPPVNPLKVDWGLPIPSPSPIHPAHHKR
T1 sequence (P08514 891-1039 limits assumed): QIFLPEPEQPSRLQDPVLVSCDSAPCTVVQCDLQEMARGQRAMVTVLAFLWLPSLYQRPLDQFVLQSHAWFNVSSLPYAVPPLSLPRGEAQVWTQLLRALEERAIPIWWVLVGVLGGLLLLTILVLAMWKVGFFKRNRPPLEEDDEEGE
T1 sequence (P05106 27-788): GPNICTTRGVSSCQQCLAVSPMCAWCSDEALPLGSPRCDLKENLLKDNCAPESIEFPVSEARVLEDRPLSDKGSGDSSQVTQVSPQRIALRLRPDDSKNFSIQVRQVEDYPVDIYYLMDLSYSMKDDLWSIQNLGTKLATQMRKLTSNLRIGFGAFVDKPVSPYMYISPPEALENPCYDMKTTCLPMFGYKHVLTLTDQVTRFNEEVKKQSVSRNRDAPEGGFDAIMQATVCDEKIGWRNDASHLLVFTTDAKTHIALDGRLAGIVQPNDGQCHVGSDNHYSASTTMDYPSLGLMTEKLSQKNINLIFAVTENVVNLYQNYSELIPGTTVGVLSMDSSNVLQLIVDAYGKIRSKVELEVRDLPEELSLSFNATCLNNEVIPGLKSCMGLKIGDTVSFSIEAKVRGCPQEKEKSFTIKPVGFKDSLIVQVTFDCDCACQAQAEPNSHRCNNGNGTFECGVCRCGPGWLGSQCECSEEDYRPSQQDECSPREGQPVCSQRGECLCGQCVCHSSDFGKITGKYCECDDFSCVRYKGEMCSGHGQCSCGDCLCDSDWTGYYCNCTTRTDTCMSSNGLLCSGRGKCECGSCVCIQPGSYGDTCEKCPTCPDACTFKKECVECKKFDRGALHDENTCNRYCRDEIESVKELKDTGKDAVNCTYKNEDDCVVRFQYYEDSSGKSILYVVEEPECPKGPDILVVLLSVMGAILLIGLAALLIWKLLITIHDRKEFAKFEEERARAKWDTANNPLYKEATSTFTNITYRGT

Structure (SMILES)	inhibition at 10 µM	inhibition at 1 µM
NC(=O)CCCNc1c(F)cc2c(=O)c(C(=O)O)cn(C3CC3)c2c1F [Compound 41]	58.8%	17.9%
CN1CCN(C(=O)CCCNc2c(F)cc3c(=O)c(C(=O)O)cn(C4CC4)c3c2F)CC1 [Compound 42]	67.3%	38.6%
Nc1c(F)c(N2CCN3CCC[C@@H]3C2)c(F)c2c1c(=O)c(C(=O)O)cn2C1CC1 [Compound 44]	61.6%	33.4%
O=C(O)c1cn(C2CCc3ccccc32)c2c(F)c(N3CCNCC3)c(F)cc2c1=O (centres unmarked) [Compound 46, 6,8-Difluoro-1-(indan-1-yl)-7-(piperazin-1-yl) 1,4-dihydro-4-oxoquinoline-3-carboxylic acid]		41.6%
NC(=O)OC1CCN(c2c(F)cc3c(=O)c(C(=O)O)cn(-c4ccc(F)cc4F)c3c2F)C1 (centres unmarked) [Compound 47]		43.1%
O=C(O)c1cn(Cc2nccs2)c2c(F)c(N3CCn4ccnc4C3)c(F)cc2c1=O [Compound 51]	97.5%	88.1%
O=C(O)c1cn2c3c(c(N4CCn5ccnc5C4)c(F)cc3c1=O)OCC2 [Compound 52, 9-Fluoro-10-(5,6,7,8-tetrahydroimidazo[1,2-a]pyrazin-7-yl)-2,3-dihydro-7-oxo-7H-pyrido[1,2,3-a][1,4]benzoxazine-6-carboxylic acid]	90.8%	55%
CN1CCN(c2c(F)cc3c(=O)c(C(=O)O)cn4c3c2N(C)CC4)CC1 [Compound 53, 9-Fluoro-1-methyl-10-(4-methylpiperazin-1-yl) 7-oxo-2,3-dihydro-1H,7H-pyrido[1,2,3-de]quinoxaline-6-carboxylic acid]	89.5%	47.6%
O=C(O)c1cn(CCc2ccccc2)c2c(F)c(N3CCNCC3)c(F)cc2c1=O [Compound 56]	88.2%	72.2%
O=C(O)c1cn(Cc2nccs2)c2c(F)c(N3CCNCC3)c(F)cc2c1=O [Compound 59, 6,8-Difluoro-7-(1-piperazinyl)-1-(2-thiazolylmethyl)-1,4-dihydro-4-oxoquinoline-3-carboxylic acid hydrochloride]	100%	100%
CN(C)CCOC1CCN(c2c(F)cc3c(=O)c(C(=O)O)cn(Cc4nccs4)c3c2F)C1 (centres unmarked) [Compound 62]	100%	100%
CN1CCN(C(=O)OC2CCN(c3c(F)cc4c(=O)c(C(=O)O)cn(Cc5nccs5)c4c3F)C2)CC1 (centres unmarked) [Compound 63]	100%	100%
O=C(O)c1cn(Cc2nccs2)c2c(F)c(N3CCN(c4ccncc4)CC3)c(F)cc2c1=O [Compound 64]	100%	100%
O=C(O)c1cn(Cc2nccs2)c2c(F)c(N3CCN(c4ccccn4)CC3)c(F)cc2c1=O [Compound 65]	100%	81.2%
O=C(O)c1cn(Cc2nccs2)c2c(F)c(N3CCN(c4cccnc4)CC3)c(F)cc2c1=O [Compound 66]	100%	86.7%
O=C(O)c1cn(Cc2nccs2)c2c(F)c(N3CCN(c4cc(N5CCCC5)nc(N5CCCC5)n4)CC3)c(F)cc2c1=O [Compound 67]	58.6%	76.4%
CC(=O)NCCN1CCN(c2c(F)cc3c(=O)c(C(=O)O)cn(Cc4nccs4)c3c2F)CC1 [Compound 69]	100%	92.2%
O=C(O)c1cn(Cc2nccs2)c2c(F)c(N3CCN(CCO)CC3)c(F)cc2c1=O [Compound 71]	100%	100%
O=C(O)c1cn(Cc2cscn2)c2c(F)c(N3CCNCC3)c(F)cc2c1=O [Compound 72, 6,8-Difluoro-7-(1-piperazinyl)-1-(4-thiazolylmethyl)-1,4-dihydro-4-oxoquinoline-3-carboxylic acid hydrochloride]	100%	88.6%

Other lines, results leading:

inhibition at 10 µM	inhibition at 1 µM	Structure (SMILES)
50.6%	34.7%	O=C(O)c1cn(C2CC2)c2c(F)c(N3CCn4ccnc4C3)c(F)c(F)c2c1=O [Compound 40]
52.1%	20.2%	C=CCN(CC=C)c1c(F)cc2c(=O)c(C(=O)O)cn(C3CC3)c2c1F [Compound 43]
59.9%	31.4%	COn1cc(C(=O)O)c(=O)c2cc(F)c(N3CCn4ccnc4C3)c(F)c21 [Compound 45]
	57.7%	NCc1nc2c(s1)CCN(c1c(F)cc3c(=O)c(C(=O)O)cn(C4CC4)c3c1F)C2 [Compound 48]
	30.5%	NC(=O)c1ccc(-n2cc(C(=O)O)c(=O)c3cc(F)c(N4CCNCC4)c(F)c32)cc1 [Compound 49]
99.8%	92.3%	CN1CCN(c2c(F)cc3c(=O)c(C(=O)O)cn(Cc4nccs4)c3c2F)CC1 [Compound 50, 6,8-Difluoro-7-(4-methylpiperazin-1-yl)-1-(thiazol-2-yl)methyl-1,4-dihydro-4-oxoquinoline-3-carboxylic acid hydrochloride]
50.1%	21%	O=C(O)c1cn(-c2ccncc2)c2c(F)c(N3CCNCC3)c(F)cc2c1=O [Compound 54]
100%	93.8%	O=C(O)c1cn(Cc2ccccc2)c2c(F)c(N3CCNCC3)c(F)cc2c1=O [Compound 55, 1-Benzyl-6,8-difluoro-7-(1-piperazinyl)-1,4-dihydro-4-oxoquinoline-3-carboxylic acid]
100%	100%	O=C(O)c1cn(Cc2nccs2)c2cc(N3CCN(c4ccncc4)CC3)ccc2c1=O [Compound 57, 7-[4-(4-Pyridyl)piperazine-1-yl]-1-(2-thiazolylmethyl)-1,4-dihydro-4-oxoquinoline-3-carboxylic acid]
100%	100%	O=C(O)c1cn(Cc2nccs2)c2cc(N3CCC(C4CCNCC4)CC3)ccc2c1=O [Compound 58, 7-[4-(4-Piperidinyl)piperidin-1-yl]-1-(2-thiazolylmethyl)-1,4-dihydro-4-oxoquinoline-3-carboxylic acid]
100%	95%	CN(C)CCCNc1c(F)cc2c(=O)c(C(=O)O)cn(Cc3nccs3)c2c1F [Compound 60]
100%	97.1%	O=C(O)c1cn(Cc2nccs2)c2c(F)c(N3CCCNCC3)c(F)cc2c1=O [Compound 61]
100%	100%	O=C(O)c1cn(Cc2nccs2)c2c(F)c(N3CCC(C4CCNCC4)CC3)c(F)cc2c1=O [Compound 68]
100%	95.9%	NCCN1CCN(c2c(F)cc3c(=O)c(C(=O)O)cn(Cc4nccs4)c3c2F)CC1 [Compound 70]
